Where two headings read alike, the source gives them in different places.
System: Plasmodium falciparum Dd2 asexual blood stage parasites
Experiment: microbe, parasite or virus in culture
Set-up: species or system Plasmodium falciparum Dd2 in human erythrocytes; single determination (one 11-point concentration-response curve)
Conditions: Plasmodium falciparum, DD2, Erythrocyte, 72 h

Row | Compound | AC50 (read-out: AC50) | AC50
1 | Cc1cc(Nc2nc3ccccc3nc2Cl)n(-c2ccccc2C)n1 [MLS000595322-01] | 0.841 µM | –
2 | Cc1ccc(-n2ncc3c(NCc4ccco4)ncnc32)cc1C [MLS000622044-01] | 15 µM | –
3 | CN1CCN(c2ccc(NC(=O)c3ccc(-c4cccc([N+](=O)[O-])c4)o3)cc2)CC1 [MLS000663772-01] | 4.73 µM | –
4 | COc1ccc(C2CC(c3cccs3)=NN2C(=O)c2ccc(Br)o2)cc1 (stereo not drawn) [MLS000663972-01] | 5.31 µM | –
5 | Cc1ccc(-c2cc(C(F)F)n3ncc(C(=O)N4CCCCC4c4cccnc4)c3n2)cc1 (stereo not drawn) [MLS000665275-01] | 2.37 µM | –
6 | CCc1cc(=O)oc2cc(C)cc(OCC(=O)C(C)(C)C)c12 [MLS000666007-01] | 11.9 µM | –
7 | O=C(CC1C(=O)N(Cc2ccccc2)C(=S)N1CCN1CCOCC1)Nc1ccc(F)cc1 (stereo not drawn) [MLS000672078-01] | 5.31 µM | –
8 | CCc1ccc(CN2CCN(Cc3cc(Br)ccc3O)CC2)cc1 [MLS000673664-01] | 2.11 µM | –
9 | OC(CNCc1cccc(Br)c1)c1ccccc1 (stereo not drawn) [MLS000676112-01] | 5.96 µM | –
10 | CCOc1cc(CNCC(O)c2ccccc2)cc(Cl)c1OC (stereo not drawn) [MLS000676147-01] | 3.35 µM | –
11 | CCOc1c(Cl)cc(CNC(C)C(O)c2ccccc2)cc1OC (stereo not drawn) [MLS000679789-01] | 6.68 µM | –
12 | SC(=NCc1ccccc1)N1CCn2cccc2C1c1cccnc1 (stereo not drawn) [MLS000683224-01] | 9.44 µM | –
13 | O=C(C[n+]1c2n(c3ccccc31)CC(O)CS2)c1ccccc1 (stereo not drawn) [MLS000687555-01] | 10.6 µM | –
14 | COc1ccc(S(=O)(=O)N2CCN(/C(S)=N/C3CCCCC3)CC2)cc1 [MLS000690529-01] | 6.68 µM | –
15 | O=C(NNc1nc(-c2ccc(Br)cc2)cs1)c1ccco1 [MLS000699189-01] | 5.31 µM | –
16 | O=C(Nc1ccc(C(=O)OC[C@@H]2CCCN3CCCC[C@H]23)cc1)c1cccc(Br)c1 [MLS000700112-01] | 6.68 µM | –
17 | Cc1ccc(NC(=O)CC2SC(NC3CCCCC3)=NC2=O)cc1 (stereo not drawn) [MLS000700518-01] | 11.9 µM | –
18 | CCOC(=O)C(C)/C(C)=N/N=C(\N)S (stereo not drawn) [MLS000701955-01] | 2.66 µM | –
19 | c1ccc(Sc2cccc3ccccc23)c(CNC2=NCCN2)c1 [MLS000702748-01] | 13.3 µM | –
20 | CCOc1ccc(C2C(C(=O)Nc3ccccc3)=C(C)N=c3sc(=Cc4cccc(OCC(=O)O)c4)c(=O)n32)cc1 (stereo not drawn) [MLS000705052-01] | 5.31 µM | –
21 | COc1ccc(C2=[N+](C)CCn3cccc32)c(OC)c1 [MLS000705896-01] | 10.6 µM | –

Row | Compound | AC50 (read-out: AC50) | AC50
22 | Cc1ccc2oc(=O)n(CCOc3ccccc3C)c2c1 [MLS000708194-01] | 4.73 µM | –
23 | CCC(C)NC(=O)c1ccccc1NC(=O)C1COc2ccccc2O1 (stereo not drawn) [MLS000708698-01] | 10.6 µM | –
24 | Cc1ccc(CN2C3CCCC2CC(NC(=O)Nc2cccc(F)c2)C3)cc1 (stereo not drawn) [MLS000709814-01] | 10.6 µM | –
25 | Cc1nc2cc(F)ccc2n1C1CCN(C(=O)c2c(F)cccc2F)CC1 [MLS000710077-01] | 5.96 µM | –
26 | O=C(NC1CCCCC1)C(c1cccs1)N(CCCN1CCOCC1)C(=O)c1ccc(-c2ccccc2)[nH]1 (stereo not drawn) [MLS000711767-01] | 4.73 µM | –
27 | CN1CCN(c2nc(Nc3ccc(O)cc3)nc3ccccc23)CC1 [MLS000716977-01] | 4.22 µM | –
28 | CC(C)C(=O)Nc1oc(-c2ccccc2)cc1C#N [MLS000721149-01] | 6.68 µM | –
29 | Cc1ccc(CNCC(O)(c2ccccc2)c2ccc(Cl)cc2)cc1 (stereo not drawn) [MLS000721405-01] | 2.99 µM | –
30 | CCOC(=O)C1=C(C)NC(=O)CC1c1cc(OC)c(OC)cc1Br (stereo not drawn) [MLS000723492-01] | 5.31 µM | –
31 | O=C1NC(=O)/C(=C\c2ccc(N3CCOCC3)o2)N1 [MLS000724369-01] | 9.44 µM | –
32 | CCOC(=O)c1nnn(-c2nonc2N)c1-c1ccc(Cl)cc1 [MLS000727794-01] | 5.31 µM | –
33 | CCOC(=O)c1nnn(-c2nonc2N)c1-c1ccc(Br)cc1 [MLS000727795-01] | 2.66 µM | –
34 | O=c1c([N+](=O)[O-])cccn1Cc1ccc(F)cc1Cl [MLS000728802-01] | 4.73 µM | –
35 | Cn1cc(CN2CCCC(CO)(Cc3ccccc3)C2)cn1 (stereo not drawn) [MLS000732297-01] | 5.96 µM | –
36 | CCCN1CCC(NCc2cn(C)nc2-c2ccc(Oc3ccccc3)cc2)CC1 [MLS000732385-01] | 4.73 µM | –
37 | COc1ccc(-n2cc(CNC3CCN(C)CC3)c(-c3cccc(F)c3)n2)cc1 [MLS000732463-01] | 10.6 µM | –
38 | CN1N=C(C(=O)N2CCc3c([nH]c4ccccc34)C2c2ccccc2Cl)CCC1=O (stereo not drawn) [MLS000733406-01] | 5.31 µM | –
39 | COc1ccc(-n2cc(CNCCCn3ccnc3)c(-c3ccccc3Cl)n2)cc1 [MLS000734282-01] | 3.35 µM | –
40 | COc1ccc2c(c1)C=C([C@@H]1C[C@H]3CN(c4ccccc4)C(=O)[C@]34CCCN14)CO2 [MLS000734809-01] | 0.944 µM | –
41 | Cc1ccccc1CN1C[C@@H]2C[C@@H](c3c[nH]nc3-c3ccccc3)N3CCC[C@@]23C1=O [MLS000735381-01] | 15 µM | –
42 | Cc1ccc(-n2cc(CNCCc3nc(C)c[nH]3)c(-c3ccc(F)cc3)n2)cc1 [MLS000735387-01] | 15 µM | –

Row | Compound | AC50 (read-out: AC50) | AC50
43 | CC1(c2ccccc2)O[C@@H]2C[C@H]3[C@@H]4CCC5=CC(=O)C=C[C@]5(C)[C@@]4(F)[C@@H](O)C[C@]3(C)[C@]2(C(=O)CO)O1 (stereo partly drawn) [MLS000738166-01] | 4.73 µM | –
44 | Cc1sc2[nH]c(-c3ccccn3)nc(=O)c2c1-c1ccccc1 [MLS000760132-01] | 13.3 µM | –
45 | COc1ccc(S(=O)(=O)N(C)C)cc1NC(C)C(=O)Nc1cccc(C#N)c1 (stereo not drawn) [MLS000761043-01] | 6.68 µM | –
46 | CC(C)CCNC(=O)c1cc(C(=O)c2cc(F)ccc2O)cn(CCC(C)C)c1=O [MLS000761418-01] | 2.11 µM | –
47 | CC(C)CN(Cc1cc(=O)oc2cc3c(cc12)CCCC3)CC(C)C [MLS000763058-01] | 15 µM | –
48 | C#Cc1ccc(C(=O)Nc2ccc(N3CCC(C)CC3)c(C(N)=O)c2)cc1 [MLS000764680-01] | 6.68 µM | –
49 | Cc1ccc(C)c(-n2c(-c3ccc(Br)cc3)csc2=NC(=O)c2ccccc2F)c1 [MLS000766129-01] | 4.73 µM | –
50 | C=CCOC(=O)C1=C[C@@H](c2ccc(C(F)(F)F)cc2)[C@H](CCCO)[C@@H](OCC)O1 [MLS000766375-01] | 7.5 µM | –
51 | CC(C(=O)c1c[nH]c2ccccc12)N1CCN(C(=O)c2ccco2)CC1 (stereo not drawn) [MLS000768379-01] | – | 5.96 µM
52 | CCC(=O)NC(N)=Nc1nc(C)c2cc(C)c(C)cc2n1 [MLS000768400-01] | 9.44 µM | –
53 | Cn1c(=O)[nH]c2nnc(-c3ccc(Cl)c(Cl)c3)nc2c1=O [MLS000768805-01] | 8.41 µM | –
54 | Cc1ccccc1Oc1nc(-c2ccccn2)nc2ccccc12 [MLS000769500-01] | 6.68 µM | –
55 | Fc1ccc(Oc2nc(-c3ccccn3)nc3ccccc23)cc1 [MLS000769507-01] | 13.3 µM | –
56 | Cc1cccc(Oc2nc(-c3ccncc3)nc3ccccc23)c1 [MLS000769517-01] | 7.5 µM | –
57 | COc1ccc(Oc2nc(-c3ccccn3)nc3ccccc23)cc1 [MLS000769536-01] | 2.99 µM | –
58 | CCCOc1ccc(Oc2nc(-c3ccncc3)nc3ccccc23)cc1 [MLS000769540-01] | 4.22 µM | –
59 | O=C(N/N=C/c1ccc(OCc2ccccc2)cc1)c1ccco1 [MLS000769970-01] | 13.3 µM | –
60 | Cc1ccc(C)c(NC(=O)CN(C)C(=O)c2cc3ccccc3o2)c1 [MLS000770584-01] | 13.3 µM | –
61 | O=C(Nc1ccc(Cl)cc1)Nc1nc(-c2ccccc2O)cs1 [MLS000774885-01] | 6.68 µM | –
62 | CCOC(=O)c1c(CN2CCN(CCO)CC2)n(-c2ccccc2)c2cc(Br)c(O)cc12 [MLS000778151-01] | 5.96 µM | –
63 | Cc1c(O)c(CN(C)C)cc2c1oc(=O)c1ccccc12 [MLS000778334-01] | 4.22 µM | –

Row | Compound | AC50 (read-out: AC50) | AC50
64 | CCOC(=O)c1c(CN(CC)CC)n(C)c2cc(Br)c(O)cc12 [MLS000778381-01] | 9.44 µM | –
65 | COc1ccc(C2c3ccc(O)cc3Oc3ncn4nc(-c5ccncc5)nc4c32)cc1OC (stereo not drawn) [MLS000778948-01] | 15 µM | –
66 | CC(=O)Nc1nc2ccccc2n1Cc1ccc(Cl)cc1 [MLS000779302-01] | 8.41 µM | –
67 | CC(C)CNc1nnnc2c1sc1nc(N3CCOCC3)c3c(c12)CCCC3 [MLS000779378-01] | 15 µM | –
68 | COC(=O)C1=C(C)N(c2ccc(OC)cc2)C(C)=C(C(=O)OC)C1c1ccccc1 [MLS000780021-01] | 9.44 µM | –
69 | Cn1nc(C(F)(F)F)c(-c2ccc(F)cc2)c1NC(=O)Nc1ccc(F)cc1 [MLS000830769-01] | 1.88 µM | –
70 | O=C(C1=C[C@H](c2csc3ccccc23)C[C@H](OCCCCO)O1)N1CCN(Cc2ccc3c(c2)OCO3)CC1 [MLS000834451-01] | 13.3 µM | –
71 | CCO[C@H]1OC(C(=O)N2CCN(Cc3ccc4c(c3)OCO4)CC2)=C[C@@H](c2cn(C(C)=O)c3ccccc23)[C@@H]1CCCO [MLS000834466-01] | 8.41 µM | –
72 | CCO[C@@H]1OC(C(=O)N2CCN(Cc3ccc4c(c3)OCO4)CC2)=C[C@H](c2cn(C(C)=O)c3ccccc23)[C@H]1CCCO [MLS000834519-01] | 9.44 µM | –
73 | CC(C)=NOC(=O)c1c(C)noc1-c1snnc1C [MLS000834920-01] | 6.68 µM | –
74 | CCNc1nc(NC(C)CC)nc(ON=C(C)C)n1 (stereo not drawn) [MLS000856336-01] | 8.41 µM | –
75 | N=c1c2c3c(sc2ncn1Nc1ccccc1)CCC3 [MLS000858994-01] | 3.35 µM | –
76 | Cc1ccc(-c2nc(NC(=O)c3cc(C(C)(C)C)nn3C)sc2C)cc1Cl [MLS000860650-01] | 10.6 µM | –
77 | Cc1cc(Nc2cc(Cl)cc(Cl)c2)nc(N)n1 [MLS000861564-01] | 6.68 µM | –
78 | CN1N=C2c3ccccc3CCC2C1c1ccc(F)cc1 (stereo not drawn) [MLS000861852-01] | 5.96 µM | –
79 | CN(C)CCN1C(=O)c2oc3ccc(Cl)cc3c(=O)c2C1c1cccc(Br)c1 (stereo not drawn) [MLS000862131-01] | 0.531 µM | –
80 | Cc1nn(-c2ccccc2)c2c1C(c1cccnc1)N1C=C(S(=O)(=O)N3CCCCC3)C=CC1=N2 (stereo not drawn) [MLS000863363-01] | 15 µM | –
81 | COC(=O)c1cc(O)cc(OC)c1Oc1cc(C)cc(O)c1C(=O)O [MLS000863583-01] | 4.22 µM | –
82 | CCOC(=O)c1ccccc1NC1c2ccccc2C(=O)N1C1CCN(C(=O)OCC)CC1 (stereo not drawn) [MLS000878310-01] | 13.3 µM | –
83 | CCN1CCN(c2cc(C)c3cc(NC(=O)c4ccc(Br)o4)ccc3n2)CC1 [MLS000878990-01] | 6.68 µM | –
84 | COc1cc(O)c(C(CCN2CCCCC2)c2cc(OC)c(OC)c(OC)c2)c(OC)c1 (stereo not drawn) [MLS000879476-01] | 2.66 µM | –
